Measured values as given in ChEMBL document CHEMBL2029216, “Synthesis and evaluation of [18F]Fluorobutyl ethacrynic amide: a potential PET tracer for studying glutathione transferase” (Bioorg Med Chem Lett, 2012).

Columns and labels:
[1] = Half life in rat plasma at 6.3 MBq, iv by HPLC analysis; type: ADME, organism-based
A549 = assay: Cytotoxicity against human A549 cells; type: functional, cell-based
Liver [2] = assay: Drug uptake in Sprague-Dawley rat liver expressing GSTalpha assessed as homogeneous distribution of [18F]FBuEA-GSH10 complex at 717 uCi/mL, iv after 120 mins by PET analysis; type: ADME, organism-based; details: in vivo, 2 h
Liver [3] = assay: Drug uptake in mouse liver after 5 mins; type: ADME, tissue-based; details: in vivo
Kidney = assay: Drug uptake in mouse kidney after 5 mins; type: ADME, tissue-based; details: in vivo
[4] = Drug uptake in 23 weeks TAA treated rat TAA-induced cholangiocarcinoma model tumor expressing GSTalpha assessed as cold spot using [18F]FDG at 801 uCi/0.23 mL, iv after 5 to 10 mins by PET analysis; type: ADME, organism-based, Neoplasm; details: in vivo
Urinary bladder = assay: Drug uptake in mouse bladder after 5 mins; type: ADME, tissue-based; details: in vivo
Liver [5] = assay: Drug uptake in TAA-induced cholangiocarcinoma model of rat liver expressing GSTalpha assessed as heterogeneous distribution of [18F]FBuEA-GSH10 complex at 569 uCi/0.6 mL, iv after 120 mins by PET analysis; type: ADME, organism-based; details: in vivo, 2 h
[6] = Drug uptake in 18 weeks TAA treated rat TAA-induced cholangiocarcinoma model tumor expressing GSTalpha assessed as hot spot using [18F]FDG at 486 uCi/0.23 mL, iv after 30 mins by PET analysis; type: ADME, organism-based, Neoplasm; details: in vivo, 0.5 h
[7] = Drug uptake in TAA-induced cholangiocarcinoma model of rat tumor expressing GSTalpha assessed as cold spot using [18F]FDG at 486 uCi/0.23 mL, iv after 5 days by PET analysis; type: ADME, organism-based, Neoplasm; details: in vivo, 120 h
[8] = Octanol-water partition coefficient, Log P of the compound at 12.6 uCi by Shake-flask method; type: physicochemical
MCF7 = assay: Cytotoxicity against human MCF7 cells; type: functional, cell-based
IMR-90 = assay: Cytotoxicity against human IMR90 cells; type: cell-based
Nucleic Acid = assay: Ratio of drug level in tumor to liver in rat TAA-induced cholangiocarcinoma model; type: ADME, tissue-based; details: in vivo

`C=C(CC)C(=O)c1ccc(OCC(=O)O)c(Cl)c1Cl` [ETHACRYNIC ACID] showed a half-life [1] of 30 min and an IC50 (A549) of 84 µM.
For `C=C(CC)C(=O)c1ccc(OCC(=O)NCCCC[18F])c(Cl)c1Cl`, the Drug uptake (Liver [2]) was “Active”, the Drug uptake (Liver [3]) was “Active” and the Drug uptake (Kidney) was “Active”. The Drug uptake [4] was “Active”, the Drug uptake (Urinary bladder) was “Active” and the Drug uptake (Liver [5]) was “Active”. For the same compound, the Drug uptake [6] was “Active”, the Drug uptake [7] was “Active” and the logP [8] was 1.47.
`C=C(CC)C(=O)c1ccc(OCC(=O)NCCCC)c(Cl)c1Cl` showed an IC50 (MCF7) of 4 µM and an IC50 (A549) of 13 µM.
For `C=C(CC)C(=O)c1ccc(OCC(=O)NCCCCF)c(Cl)c1Cl`, the IC50 (MCF7) was 3 µM, the IC50 (A549) was 8 µM and the IC50 (IMR-90) was 18 µM.
Compound `OC[C@H]1O[C@@H](O)[C@H]([18F])[C@@H](O)[C@@H]1O` [FLUDEOXYGLUCOSE-F18] has a Ratio (Nucleic Acid) of 1.6.
